Data published in ChEMBL document CHEMBL1154418 (2007).
Values after ≈ are worked out from the molar mass of the structure shown. Active and inactive are the calls of the source. The rule behind the calls is not given here.

Experiments:
Escherichia coli [1] = experiment: Antibacterial activity against tetracycline-resistant Escherichia coli clinical isolates expressing tet(A), tet(M) gene by broth microdilution method; type: functional, organism-based
Escherichia coli [2] = experiment: Antibacterial activity against tetracycline-resistant Escherichia coli clinical isolates by broth microdilution method; type: functional
Escherichia coli [3] = experiment: Antibacterial activity against tetracycline-resistant Escherichia coli clinical isolates expressing tet(A), tet(B), tet(D), tet(E) gene by broth microdilution method; type: functional, organism-based
Escherichia coli [4] = experiment: Antibacterial activity against tetracycline-resistant Escherichia coli clinical isolates expressing tet(A), tet(B) gene by broth microdilution method; type: functional
Escherichia coli [5] = experiment: Antibacterial activity against tetracycline-resistant Escherichia coli clinical isolates expressing tet(C), tet(E) gene by broth microdilution method; type: functional, organism-based
Escherichia coli [6] = experiment: Antibacterial activity against tetracycline-resistant Escherichia coli clinical isolates expressing tet(M) gene by broth microdilution method; type: functional, organism-based
Escherichia coli [7] = experiment: Antibacterial activity against tetracycline-resistant Escherichia coli clinical isolates expressing tet(D), tet(E) gene by broth microdilution method; type: functional, organism-based
Escherichia coli [8] = experiment: Antibacterial activity against tetracycline-resistant Escherichia coli clinical isolates expressing tet(B), tet(E) gene by broth microdilution method; type: functional
Escherichia coli [9] = experiment: Antibacterial activity against tetracycline-resistant Escherichia coli clinical isolates expressing tet(B), tet(D) gene by broth microdilution method; type: functional
Escherichia coli [10] = experiment: Antibacterial activity against tetracycline-resistant Escherichia coli clinical isolates expressing tet(B) gene by broth microdilution method; type: functional
Escherichia coli [11] = experiment: Antibacterial activity against tetracycline-resistant Escherichia coli clinical isolates expressing tet(A), tet(E) gene by broth microdilution method; type: functional, organism-based
Escherichia coli [12] = experiment: Antibacterial activity against Escherichia coli ATCC 25922 by broth microdilution method; type: functional, organism-based
Escherichia coli [13] = experiment: Antibacterial activity against tetracycline-resistant Escherichia coli clinical isolates expressing tet(A), tet(D) gene by broth microdilution method; type: functional
Escherichia coli [14] = experiment: Antibacterial activity against tetracycline-resistant Escherichia coli with multiple drug resistance determinant isolates by broth microdilution method; type: functional
Escherichia coli [15] = experiment: Antibacterial activity against tetracycline-resistant Escherichia coli with single drug resistance determinant isolates by broth microdilution method; type: functional
Escherichia coli [16] = experiment: Antibacterial activity against tetracycline-resistant Escherichia coli clinical isolates without tet(B) gene by broth microdilution method; type: functional
Escherichia coli [17] = experiment: Antibacterial activity against tetracycline-resistant Escherichia coli clinical isolates expressing tet(A) gene by broth microdilution method; type: functional
Escherichia coli [18] = experiment: Antibacterial activity against tetracycline-resistant Escherichia coli clinical isolates expressing tet(B), tet(C) gene by broth microdilution method; type: functional, organism-based
Escherichia coli [19] = experiment: Antibacterial activity against tetracycline-resistant Escherichia coli clinical isolates expressing tet(C) gene by broth microdilution method; type: functional, organism-based
Escherichia coli [20] = experiment: Antibacterial activity against tetracycline-resistant Escherichia coli clinical isolates expressing tet(A), tet(B), tet(D) gene by broth microdilution method; type: functional, organism-based
Escherichia coli [21] = experiment: Antibacterial activity against tetracycline-resistant Escherichia coli clinical isolates expressing tet(E) gene by broth microdilution method; type: functional, organism-based
Escherichia coli [22] = experiment: Antibacterial activity against tetracycline-resistant Escherichia coli clinical isolates expressing tet(D) gene by broth microdilution method; type: functional
Escherichia coli [23] = experiment: Antibacterial activity against tetracycline-susceptible Escherichia coli clinical isolates by broth microdilution method; type: functional
Escherichia coli [24] = experiment: Antibacterial activity against tetracycline-resistant Escherichia coli clinical isolates expressing tet(B), tet(D), tet(E) gene by broth microdilution method; type: functional, organism-based

Row | SMILES | Activity (Escherichia coli [1]) | MIC50 (Escherichia coli [2]) | MIC90 (Escherichia coli [2]) | Activity (Escherichia coli [3]) | MIC50 (Escherichia coli [4]) | MIC90 (Escherichia coli [4]) | Activity (Escherichia coli [5]) | Activity (Escherichia coli [6]) | Activity (Escherichia coli [7]) | MIC50 (Escherichia coli [8]) | MIC90 (Escherichia coli [8]) | MIC50 (Escherichia coli [9]) | MIC90 (Escherichia coli [9]) | MIC50 (Escherichia coli [10]) | MIC90 (Escherichia coli [10]) | Activity (Escherichia coli [11]) | MIC50 (Escherichia coli [13]) | MIC90 (Escherichia coli [13]) | MIC50 (Escherichia coli [14]) | MIC90 (Escherichia coli [14]) | further results
1 | CN(C)c1ccc(O)c2c1C[C@H]1C[C@H]3[C@H](N(C)C)C(O)=C(C(N)=O)C(=O)[C@@]3(O)C(O)=C1C2=O [MINOCYCLINE] | inactive | 4 µg/mL (≈ 8.74 µM) | 8 µg/mL (≈ 17.5 µM) | inactive | 16 µg/mL (≈ 35 µM) | 32 µg/mL (≈ 69.9 µM) | inactive | inactive | inactive | 8 µg/mL (≈ 17.5 µM) | 32 µg/mL (≈ 69.9 µM) | 16 µg/mL (≈ 35 µM) | 64 µg/mL (≈ 140 µM) | 16 µg/mL (≈ 35 µM) | 32 µg/mL (≈ 69.9 µM) | inactive | 4 µg/mL (≈ 8.74 µM) | 16 µg/mL (≈ 35 µM) | 8 µg/mL (≈ 17.5 µM) | 32 µg/mL (≈ 69.9 µM) | Activity (Escherichia coli [12]): inactive; MIC50 (Escherichia coli [15]): 8 µg/mL (≈ 17.5 µM); MIC90 (Escherichia coli [15]): 32 µg/mL (≈ 69.9 µM); MIC50 (Escherichia coli [16]): 4 µg/mL (≈ 8.74 µM); MIC90 (Escherichia coli [16]): 8 µg/mL (≈ 17.5 µM); MIC50 (Escherichia coli [17]): 2 µg/mL (≈ 4.37 µM); MIC90 (Escherichia coli [17]): 4 µg/mL (≈ 8.74 µM); Activity (Escherichia coli [18]): inactive; Activity (Escherichia coli [19]): inactive; Activity (Escherichia coli [20]): inactive; Activity (Escherichia coli [21]): inactive; MIC50 (Escherichia coli [22]): 8 µg/mL (≈ 17.5 µM); MIC90 (Escherichia coli [22]): 8 µg/mL (≈ 17.5 µM); MIC50 (Escherichia coli [23]): 1 µg/mL (≈ 2.19 µM); MIC90 (Escherichia coli [23]): 2 µg/mL (≈ 4.37 µM); Activity (Escherichia coli [24]): inactive
2 | CN(C)[C@@H]1C(O)=C(C(N)=O)C(=O)[C@@]2(O)C(O)=C3C(=O)c4c(O)cccc4[C@@](C)(O)[C@H]3C[C@@H]12 [TETRACYCLINE] | inactive | > 64 µg/mL | > 64 µg/mL | inactive | > 64 µg/mL | > 64 µg/mL | inactive | inactive | inactive | > 64 µg/mL | > 64 µg/mL | > 64 µg/mL | > 64 µg/mL | > 64 µg/mL | > 64 µg/mL | inactive | > 64 µg/mL | > 64 µg/mL | > 64 µg/mL | > 64 µg/mL | MIC50 (Escherichia coli [15]): > 64 µg/mL; MIC90 (Escherichia coli [15]): > 64 µg/mL; MIC50 (Escherichia coli [16]): > 64 µg/mL; MIC90 (Escherichia coli [16]): > 64 µg/mL; MIC50 (Escherichia coli [17]): > 64 µg/mL; MIC90 (Escherichia coli [17]): 64 µg/mL (≈ 144 µM); Activity (Escherichia coli [18]): inactive; Activity (Escherichia coli [19]): inactive; Activity (Escherichia coli [20]): inactive; Activity (Escherichia coli [21]): inactive; MIC50 (Escherichia coli [22]): > 64 µg/mL; MIC90 (Escherichia coli [22]): > 64 µg/mL; MIC90 (Escherichia coli [23]): 4 µg/mL (≈ 9 µM); Activity (Escherichia coli [24]): inactive
3 | CN(C)c1cc(NC(=O)CNC(C)(C)C)c(O)c2c1C[C@H]1C[C@H]3[C@H](N(C)C)C(O)=C(C(N)=O)C(=O)[C@@]3(O)C(O)=C1C2=O [TIGECYCLINE] | inactive | 0.5 µg/mL (≈ 0.854 µM) | 1 µg/mL (≈ 1.71 µM) | inactive | 0.25 µg/mL (≈ 0.427 µM) | 0.5 µg/mL (≈ 0.854 µM) | inactive | inactive | inactive | 0.25 µg/mL (≈ 0.427 µM) | 0.25 µg/mL (≈ 0.427 µM) | 0.25 µg/mL (≈ 0.427 µM) | 0.5 µg/mL (≈ 0.854 µM) | 0.25 µg/mL (≈ 0.427 µM) | 0.5 µg/mL (≈ 0.854 µM) | inactive | 0.5 µg/mL (≈ 0.854 µM) | 1 µg/mL (≈ 1.71 µM) | 0.25 µg/mL (≈ 0.427 µM) | 0.5 µg/mL (≈ 0.854 µM) | Activity (Escherichia coli [12]): inactive; MIC50 (Escherichia coli [15]): 0.25 µg/mL (≈ 0.427 µM); MIC90 (Escherichia coli [15]): 0.5 µg/mL (≈ 0.854 µM); MIC50 (Escherichia coli [16]): 0.5 µg/mL (≈ 0.854 µM); MIC90 (Escherichia coli [16]): 0.5 µg/mL (≈ 0.854 µM); MIC50 (Escherichia coli [17]): 0.5 µg/mL (≈ 0.854 µM); MIC90 (Escherichia coli [17]): 0.5 µg/mL (≈ 0.854 µM); Activity (Escherichia coli [18]): inactive; Activity (Escherichia coli [19]): inactive; Activity (Escherichia coli [20]): inactive; Activity (Escherichia coli [21]): inactive; MIC50 (Escherichia coli [22]): 0.25 µg/mL (≈ 0.427 µM); MIC90 (Escherichia coli [22]): 0.5 µg/mL (≈ 0.854 µM); MIC50 (Escherichia coli [23]): 0.25 µg/mL (≈ 0.427 µM); MIC90 (Escherichia coli [23]): 0.5 µg/mL (≈ 0.854 µM); Activity (Escherichia coli [24]): inactive
